Experimental data taken from patent US11566007B2, “Ras inhibitors” (Revolution Medicines, Inc., priority 2019, dated 2023).
Several values for one entry are separate records, joined by “and”; a condition that tells them apart may be missing. Equal entries are not always repeated. Where two headings read alike, the source gives them in different places.

Key:
[1] = molecular target: K-Ras G13C (Homo sapiens (Human), UniProt P01116+P62937, G13C); experiment: Ras-Raf (BRAF RBD) disruption / FRET / MOA assay, KRAS G13C; assay type: biochemical; conditions: KRAS G13C; Ras-Raf disruption/FRET/MOA assay; read-out: IC50* KRAS G13C FRET data
K-Ras G13C, sequence (P01116-2 other isoform, or with tags, fused parts or gaps G13C): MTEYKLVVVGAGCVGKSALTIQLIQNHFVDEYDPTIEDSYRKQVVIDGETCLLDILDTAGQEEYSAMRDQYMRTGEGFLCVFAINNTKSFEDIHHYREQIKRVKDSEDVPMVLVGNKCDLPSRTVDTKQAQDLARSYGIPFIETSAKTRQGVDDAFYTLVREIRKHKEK
K-Ras G13C, sequence (P62937 whole entry): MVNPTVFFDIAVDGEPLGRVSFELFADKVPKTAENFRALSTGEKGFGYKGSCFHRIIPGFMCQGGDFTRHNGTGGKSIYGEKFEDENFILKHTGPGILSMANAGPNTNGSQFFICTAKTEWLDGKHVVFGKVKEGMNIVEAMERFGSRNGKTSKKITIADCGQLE
Summary of the method: (§1)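 Ternary complex formation (Ras–compound–cyclophilin A) displacing BRAF RBD, monitored by TR-FRET. Three hours at 25° C with compound (top 30 μM final), then 1.5 h with the labelled antibodies. Lower ratio than DMSO indicates disruption; IC50 reported.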

[2] = molecular target: KRAS G13D (Homo sapiens (Human), UniProt P01116+P62937, G13D); experiment: Ras-Raf (BRAF RBD) disruption / FRET / MOA assay, KRAS G13D; assay type: biochemical; conditions: read-out: IC50* KRAS G13D FRET data
KRAS G13D, sequence (P01116-2 other isoform, or with tags, fused parts or gaps G13D): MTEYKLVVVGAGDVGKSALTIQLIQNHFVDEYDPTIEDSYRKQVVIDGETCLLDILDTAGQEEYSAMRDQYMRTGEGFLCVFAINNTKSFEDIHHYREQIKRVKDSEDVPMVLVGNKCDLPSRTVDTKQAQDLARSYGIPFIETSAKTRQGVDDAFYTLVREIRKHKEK
KRAS G13D, sequence (P62937 whole entry): as the sequence (P62937 whole entry) above
Summary of the method: as §1

[3] = molecular target: KRAS G12V (Homo sapiens (Human), UniProt P01116+P62937, G12V); experiment: Ras-Raf (BRAF RBD) disruption / FRET / MOA assay, KRAS G12V; assay type: biochemical; conditions: read-out: IC50* KRAS G12V FRET data
KRAS G12V, sequence (P01116-2 other isoform, or with tags, fused parts or gaps G12V): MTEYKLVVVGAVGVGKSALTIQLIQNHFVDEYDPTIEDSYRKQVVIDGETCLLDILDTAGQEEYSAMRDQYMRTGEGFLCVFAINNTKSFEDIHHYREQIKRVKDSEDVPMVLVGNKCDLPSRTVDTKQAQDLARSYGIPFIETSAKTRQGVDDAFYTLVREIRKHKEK
KRAS G12V, sequence (P62937 whole entry): as the sequence (P62937 whole entry) above
Summary of the method: as §1

[4] = test system: NCI-H358 (K-Ras G12C); experiment: CellTiter-Glo cell viability assay, NCI-H358; assay type: cell-based, human; conditions: NCI-H358, 5-day treatment, class symbols, read-out: Additional H358 Cell Viability assay data (K-Ras G12C, IC50)
Summary of the method: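 Luminescent viability readout on day 5 after direct compound addition to plated cells; plates sat ~30 min at room temperature before reading. Values expressed as percent of mean DMSO signal, curves fit with a four-parameter logistic model.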

[5] = molecular target: K-Ras G12C (Homo sapiens (Human), UniProt P01116+P62937, G12C); experiment: Ras-Raf (BRAF RBD) disruption / FRET / MOA assay, KRAS G12C; assay type: biochemical; conditions: KRAS G12C; Ras-Raf disruption/FRET/MOA assay; read-out: IC50* KRAS G12C FRET data
K-Ras G12C, sequence (P01116-2 other isoform, or with tags, fused parts or gaps G12C): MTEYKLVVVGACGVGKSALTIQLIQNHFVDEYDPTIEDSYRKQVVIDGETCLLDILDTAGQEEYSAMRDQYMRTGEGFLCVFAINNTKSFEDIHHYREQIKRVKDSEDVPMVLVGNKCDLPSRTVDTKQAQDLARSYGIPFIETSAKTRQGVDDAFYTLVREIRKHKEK
K-Ras G12C, sequence (P62937 whole entry): as the sequence (P62937 whole entry) above
Summary of the method: as §1

[6] = test system: NCI-H358 cells (K-Ras G12C); experiment: Potency assay: pERK in NCI-H358 cells; assay type: cell-based, human; conditions: Homo sapiens, NCI-H358; H358 KRAS G12C; read-out: pERK EC50
Summary of the method: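 Compounds are dosed as ten 3-fold dilutions from a 10 mM DMSO stock, in duplicate, and left on cells for 4 h at 37 °C, 5% CO2. Phospho-ERK1/2 is then quantified by AlphaLISA SureFire Ultra or In-Cell Western, and IC50 is derived from a 4-parameter sigmoid against log concentration.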

[7] = molecular target: KRAS G12S (Homo sapiens (Human), UniProt P01116+P62937, G12S); experiment: Ras-Raf (BRAF RBD) disruption / FRET / MOA assay, KRAS G12S; assay type: biochemical; conditions: Ras-Raf disruption/FRET/MOA assay; class symbols; read-out: KRAS G12S FRET data IC50
KRAS G12S, sequence (P01116-2 other isoform, or with tags, fused parts or gaps G12S): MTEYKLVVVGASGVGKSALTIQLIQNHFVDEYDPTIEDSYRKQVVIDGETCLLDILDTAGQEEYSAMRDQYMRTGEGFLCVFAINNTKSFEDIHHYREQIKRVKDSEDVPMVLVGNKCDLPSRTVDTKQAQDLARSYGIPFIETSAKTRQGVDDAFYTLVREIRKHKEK
KRAS G12S, sequence (P62937 whole entry): as the sequence (P62937 whole entry) above
Summary of the method: as §1

[8] = molecular target: KRAS WT (Homo sapiens (Human), UniProt P01116+P62937); experiment: Ras-Raf (BRAF RBD) disruption / FRET / MOA assay, KRAS WT; assay type: biochemical; conditions: read-out: IC50* KRAS WT FRET data
KRAS WT, sequence (P01116-2 other isoform, or with tags, fused parts or gaps): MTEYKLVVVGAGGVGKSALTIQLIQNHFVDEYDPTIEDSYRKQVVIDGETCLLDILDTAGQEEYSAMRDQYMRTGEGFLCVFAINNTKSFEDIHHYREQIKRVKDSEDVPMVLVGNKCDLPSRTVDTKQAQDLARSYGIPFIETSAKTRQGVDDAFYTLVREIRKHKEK
KRAS WT, sequence (P62937 whole entry): as the sequence (P62937 whole entry) above
Summary of the method: as §1

[9] = molecular target: KRAS G12D (Homo sapiens (Human), UniProt P01116+P62937, G12D); experiment: Ras-Raf (BRAF RBD) disruption / FRET / MOA assay, KRAS G12D; assay type: biochemical; conditions: Ras-Raf disruption/FRET/MOA assay; class symbols; read-out: KRAS G12D FRET data IC50
KRAS G12D, sequence (P01116-2 other isoform, or with tags, fused parts or gaps G12D): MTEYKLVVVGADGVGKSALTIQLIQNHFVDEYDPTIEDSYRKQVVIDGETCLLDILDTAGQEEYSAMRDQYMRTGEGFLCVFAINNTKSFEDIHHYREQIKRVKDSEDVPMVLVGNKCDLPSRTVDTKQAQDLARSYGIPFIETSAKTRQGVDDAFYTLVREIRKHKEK
KRAS G12D, sequence (P62937 whole entry): as the sequence (P62937 whole entry) above
Summary of the method: as §1

[10] = molecular target: NRAS G12C (Homo sapiens (Human), UniProt P01111+P62937, G12C); experiment: Ras-Raf (BRAF RBD) disruption / FRET / MOA assay, NRAS G12C; assay type: biochemical; conditions: read-out: IC50* NRAS G12C FRET data
NRAS G12C, sequence (P01111 whole entry G12C): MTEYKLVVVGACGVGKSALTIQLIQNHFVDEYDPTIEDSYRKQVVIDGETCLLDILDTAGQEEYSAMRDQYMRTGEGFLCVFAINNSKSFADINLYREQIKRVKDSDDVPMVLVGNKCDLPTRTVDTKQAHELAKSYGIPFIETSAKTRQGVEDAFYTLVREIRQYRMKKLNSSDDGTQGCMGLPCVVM
NRAS G12C, sequence (P62937 whole entry): as the sequence (P62937 whole entry) above
Summary of the method: as §1

Row | IC50 [4] [µM] | Structure (SMILES) | IC50 [1] | IC50 [2] | IC50 [3] | IC50 ([4]; Homo sapiens, NCI-H358, 120 h) [µM] | IC50 [5] | EC50 [6] [µM] | IC50 [7] | IC50 [8] | IC50 [9] | IC50 [10]
1 | – | CCn1c(-c2cccnc2[C@H](C)OC)c2c3cc(ccc31)-c1cccc(c1)C[C@H](NC(=O)[C@H](C(C)C)N(C)C(=O)[C@H]1CCN(C(=O)C#CCN(C)C)C1)C(=O)N1CCC[C@H](N1)C(=O)OCC(C)(C)C2 (atropisomer, axis not shown) [Example A121] | 0.01 to 0.1 µM and 1 to 10 µM | 1 to 10 µM | 1 to 10 µM and > 10 µM | 0.01 to 0.1 | 0.01 to 0.1 µM and < 0.01 µM | < 5 | 1 to 10 µM and > 10 µM | 1 to 10 µM and > 10 µM | 1 to 10 µM | 0.01 to 0.1 µM and < 0.01 µM
2 | – | C=CS(=O)(=O)N1CC[C@H](C(=O)N(C)[C@H](C(=O)N[C@H]2Cc3cccc(c3)-c3ccc4c(c3)c(c(-c3cccnc3[C@H](C)OC)n4CC)CC(C)(C)COC(=O)[C@@H]3CCCN(N3)C2=O)C(C)C)C1 (atropisomer, axis not shown) [Example A124] | 0.01 to 0.1 µM and 1 to 10 µM | > 10 µM | 1 to 10 µM and > 10 µM | 0.01 to 0.1 | 0.01 to 0.1 µM and 1 to 10 µM | < 5 | 1 to 10 µM and > 10 µM | 1 to 10 µM and > 10 µM | > 10 µM | 0.01 to 0.1 µM and 1 to 10 µM
3 | – | CCn1c(-c2cccnc2[C@H](C)OC)c2c3cc(ccc31)-c1cc(O)cc(c1)C[C@H](NC(=O)[C@H](C(C)C)N(C)C(=O)[C@H]1CCN(C(=O)C#CCN(C)C)C1)C(=O)N1CCC[C@H](N1)C(=O)OCC(C)(C)C2 (atropisomer, axis not shown) [Example A131] | 0.01 to 0.1 µM and < 0.01 µM | 0.1 to 1 µM and 1 to 10 µM | 0.1 to 1 µM and 1 to 10 µM | < 0.01 | < 0.01 µM | < 5 | 0.1 to 1 µM and 1 to 10 µM | 0.1 to 1 µM and 1 to 10 µM | 1 to 10 µM and 0.1 to 1 µM | < 0.01 µM
4 | > 1 | CCn1c(-c2cccnc2COC)c2c3cc(ccc31)-c1cc(O)cc(c1)C[C@H](NC(=O)[C@H](C(C)C)N(C)C(=O)[C@H]1CCC(C(=O)/C=C\CN(C)C)C1)C(=O)N1CCC[C@H](N1)C(=O)OCC(C)(C)C2 (stereo partly drawn) [Example A161] | 1 to 10 µM | 1 to 10 µM | 1 to 10 µM | – | 0.1 to 1 µM | – | 1 to 10 µM | 1 to 10 µM | > 10 µM | 0.1 to 1 µM
5 | – | COCc1ncccc1-c1nc2ccc3cc2n1CC(C)(C)COC(=O)[C@@H]1CCCN(N1)C(=O)[C@@H](NC(=O)[C@H](C(C)C)N(C)C(=O)[C@H]1CCN(C(=O)C#CCN2CCOCC2)C1)Cc1cc(O)cc-3c1 [Example A188] | > 10 µM | > 10 µM | > 10 µM | > 1 | 0.1 to 1 µM | – | > 10 µM | > 10 µM | > 10 µM | 0.1 to 1 µM
6 | – | C=CC(=O)N1CC[C@H](C(=O)Nc2ccccc2C(=O)N[C@H]2Cc3cc(O)cc(c3)-c3ccc4c(c3)c(c(-c3cnccc3COC)n4CC)CC(C)(C)COC(=O)[C@@H]3CCCN(N3)C2=O)C1 [Example A229] | > 10 µM | > 10 µM | > 10 µM | > 1 | 0.1 to 1 µM | – | > 10 µM | > 10 µM | > 10 µM | 1 to 10 µM
7 | – | C=CC(=O)N1CC[C@H](C(=O)N(C)[C@H](C(=O)N(C)[C@H]2Cc3cc(O)cc(c3)-c3ccc4c(c3)c(c(-c3cccnc3COC)n4CC)CC(C)(C)COC(=O)[C@@H]3CCCN(N3)C2=O)C(C)C)C1 [Example A230] | > 10 µM | > 10 µM | > 10 µM | > 1 | > 10 µM | – | > 10 µM | > 10 µM | > 10 µM | > 10 µM
8 | – | C=CC(=O)N1CC[C@H](C(=O)N(C)[C@H](C(=O)N[C@H]2Cc3cc(OC4O[C@H](CO)[C@@H](O)[C@H](O)[C@H]4O)cc(c3)-c3ccc4c(c3)c(c(-c3cccnc3COC)n4CC)CC(C)(C)COC(=O)[C@@H]3CCCN(N3)C2=O)C(C)C)C1 (stereo partly drawn) [Example A234] | > 10 µM | > 10 µM | > 10 µM | > 1 | > 10 µM | – | > 10 µM | > 10 µM | > 10 µM | > 10 µM
9 | – | C=CC(=O)N1CC(O[C@H](C(=O)N[C@H]2Cc3cc(O)cc(c3)-c3ccc4c(c3)c(c(-c3cccnc3COC)n4CC)CC(C)(C)COC(=O)[C@@H]3CCCN(N3)C2=O)C(C)C)C1 [Example A235] | 1 to 10 µM | > 10 µM | > 10 µM | > 1 | 1 to 10 µM | – | > 10 µM | > 10 µM | > 10 µM | 1 to 10 µM
10 | – | C=CC(=O)N1CC[C@H](C(=O)N(C)[C@H](C(=O)N[C@H]2CC3=NN=C(S3)c3ccc4c(c3)c(c(-c3cccnc3COC)n4CC)CC(C)(C)COC(=O)[C@@H]3CCCN(N3)C2=O)C(C)C)C1 [Example A236] | > 10 µM | > 10 µM | > 10 µM | > 1 | > 10 µM | – | > 10 µM | > 10 µM | > 10 µM | > 10 µM
11 | – | C=CC(=O)N1CC[C@H](C(=O)N(C)[C@H](C(=O)N[C@H]2CN(C)C(=O)Cc3ccc4c(c3)c(c(-c3cccnc3COC)n4CC)CC(C)(C)COC(=O)[C@@H]3CCCN(N3)C2=O)C(C)C)C1 [Example A239] | > 10 µM | > 10 µM | > 10 µM | > 1 | > 10 µM | – | > 10 µM | > 10 µM | > 10 µM | > 10 µM
12 | – | C=CC(=O)N1CC[C@H](C(=O)N(C)[C@H](C(=O)N[C@@H]2C(=O)N3CCC[C@H](N3)C(=O)OCC(C)(C)Cc3c(-c4cncnc4)n(CC)c4ccc(cc34)-c3cccc(c3)[C@@H]2OC)C(C)C)C1 [Example A271] | > 10 µM | > 10 µM | > 10 µM | > 1 | > 10 µM | – | > 10 µM | > 10 µM | > 10 µM | > 10 µM
13 | – | C=CC(=O)N1CC[C@H](C(=O)N(C)[C@H](C(=O)N[C@@H]2C(=O)N3CCC[C@H](N3)C(=O)OCC(C)(C)Cc3c(-c4cncnc4)n(CC)c4ccc(cc34)-c3cccc(c3)[C@H]2OC)C(C)C)C1 [Example A273] | > 10 µM | > 10 µM | > 10 µM | > 1 | > 10 µM | – | > 10 µM | > 10 µM | > 10 µM | > 10 µM
14 | – | CC#CC(=O)N1CC[C@H](C(=O)N(C)[C@H](C(=O)N[C@H]2Cc3nc(cs3)-c3ccc4c(c3)c(c(-c3cccnc3[C@H](C)OC)n4C(C)=O)CC(C)(C)COC(=O)[C@@H]3CCCN(N3)C2=O)C(C)C)C1 [Example A293] | > 10 µM | > 10 µM | > 10 µM | > 1 | > 10 µM | – | > 10 µM | > 10 µM | > 10 µM | > 10 µM
15 | – | CO[C@@H](C)c1ncccc1-c1nc2ccc3cn2c1CC(C)(C)COC(=O)[C@@H]1CCCN(N1)C(=O)[C@@H](NC(=O)[C@H](C(C)C)N(C)C(=O)[C@H]1CCN(C(=O)C#CC(C)(C)N(C)C)C1)Cc1cccc-3c1 [Example A311] | > 10 µM | > 10 µM | > 10 µM | > 1 | > 10 µM | – | > 10 µM | > 10 µM | > 10 µM | > 10 µM
16 | – | C=CC(=O)N1CC[C@H](C(=O)N(C)[C@H](C(=O)NC2C[C@@H]3CN(CCO3)c3ccc4c(c3)c(c(-c3cccnc3[C@H](C)OC)n4CC)CC(C)(C)COC(=O)[C@@H]3CCCN(N3)C2=O)C(C)C)C1 (stereo partly drawn) [Example A312] | > 10 µM | > 10 µM | > 10 µM | > 1 | > 10 µM | – | > 10 µM | > 10 µM | > 10 µM | > 10 µM
17 | – | C=CC(=O)N1CC[C@H](C(=O)N(C)[C@H](C(=O)N[C@H]2Cc3cccc(c3)-c3ccc4c(c3)c(c(-c3cc(CN(C)C)cnc3[C@H](C)OC)n4CC)CC(C)(C)COC(=O)[C@@H]3CCCN(N3)C2=O)C(C)C)C1 [Example A523] | > 10 µM | > 10 µM | > 10 µM | 0.1 to 1 | 1 to 10 µM | – | > 10 µM | > 10 µM | > 10 µM | 1 to 10 µM
